Data taken from patent publication US20240218066A1, “USE OF ANTI-PD-1 ANTIBODY IN COMBINATION WITH FIRST-LINE CHEMOTHERAPY IN TREATMENT OF ADVANCED NON-SMALL CELL LUNG CANCER” (SHANGHAI JUNSHI BIOSCIENCES CO., LTD., priority 2021, published 2024).

Legend:
[1] = tested on: patients with untreated advanced NSCLC; test: Phase III clinical study, biomarker analysis (WES, TMB, gene mutations); format: in vivo, human
Protocol: As of Oct. 31, 2021, whole exome sequencing (WES) was performed on tumor biopsies and matched peripheral blood from 394 patients.
Tumor mutation burden (TMB) was determined by analyzing somatic mutations within coding regions of the human genome. The median TMB in each group was 6.6 mutations per million base pairs (Mb). Tumor tissue from 122 (26.2%) patients had more than 10 mutations/Mb, 72.1% of which was also PD-L1 TC≥1% (see FIG. 6a). […] However, compared to TMB-L (i.e., low TMB) patients (TMB<10 mutations/Mb). TMB-H patients had better PFS in the toripalimab group than in the placebo group (interaction P=0.026) (see FIGS. 7a and 7b).
Gene set enrichment analysis was performed on the relevant genes to identify over-represented biological pathways. […] In addition, patients with alterations in the IL-7 signaling pathway (HGF, IRS1, IRS2, and SMARCA4) or chromatin remodeling SWI/SNF complex (SMARCA4, SMARCA2, and PBRM1) also had better PFS results from combination therapy with toripalimab (see FIGS. 12-13).

[2] = tested on: patients with untreated advanced NSCLC; test: Phase III clinical study, efficacy assessed by the investigator according to RECIST 1.1; format: in vivo, human; set-up: reduction of the risk of progression or death, compared to standard chemotherapy / increase of PFS rate at 6 months compared to control group / increase of PFS rate at 12 months compared to control group / increase in ORR compared to control group: concentration or dose not given beside the values
Protocol: About 450 patients with advanced NSCLC not accompanied by EGFR-sensitive mutations and ALK fusions were randomly divided into two groups according to a 2:1 ratio, with the test group receiving toripalimab in combination with first-line standard chemotherapy and the control group receiving placebo in combination with first-line standard chemotherapy. Stratification was performed according to PD-L1 expression (TC≥1% vs TC<1%), smoking status (frequent smoking vs no smoking or little smoking), and pathological type (squamous cell carcinoma vs non-squamous cell carcinoma).
After randomization, the patients were subjected to treatment in the induction stage for 4-6 cycles, during which the patients received toripalimab/placebo+first-line standard chemotherapy. After the induction stage was over, the patients were subjected to treatment in the maintenance stage, during which patients with squamous cell carcinoma continued to receive toripalimab/placebo treatment until progressive disease, and patients with non-squamous cell carcinoma continued to receive toripalimab/placebo+pemetrexed treatment until progressive disease.
Tumor assessments were performed once every 6 weeks for the first 12 months of the study stage according to RECIST 1.1 and iRECIST; after 12 months, tumor assessments were performed every 9 weeks until progressive disease, initiation of a new anti-tumor therapy, intolerable toxicity, withdrawal of informed consent or death, 2 years of treatment with toripalimab, or other reasons as specified in the protocol, whichever occurred first.
Eligible subjects must (1) be patients with histologically and/or cytologically confirmed locally advanced (stage IIIB or IIIC) and stage IV non-small cell lung cancer that is inoperable and cannot receive radical concurrent chemoradiotherapy; (2) have at least one measurable lesion (according to RECIST 1.1); (3) have not received any systemic treatment (patients with recurrence more than 6 months after completion of prior neoadjuvant/adjuvant therapy may also be enrolled); (4) be aged between 18 and 75 years; (5) have ECOG of 0-1; (6) have an expected survival of ≥3 months; and (7) be available to provide tissue specimens for PD-L1 testing.
Unless otherwise specified, the efficacy analysis was based on the ITT set, which was analyzed by groups according to the treatment regimen to which patients were assigned at randomization.
The progression-free survival rate and median progression-free survival of the JS001+first-line standard treatment group and the placebo+first-line standard treatment group at different time points after the start of treatment were estimated by the Kaplan-Meier method, and Kaplan-Meier curves were plotted. The 95% confidence interval for progression-free survival rate at different time points (6 months and 1 year) was estimated using the Greenwood formula. The 95% confidence interval for median progression-free survival was estimated using the Brookmeyer-Crowley method where the log-log function conversion was used to reach normal approximation. Statistical test was performed on the inter-group difference by a stratified log-rank method for the total population. Statistical test was performed on the inter-group difference by a non-stratified log-rank method for the subpopulations. A stratified COX proportional hazards model was used to estimate the inter-group hazard ratio (HR) and the corresponding 95% confidence interval, and the tied events were processed by an exact method. Stratification analysis was performed using 3 stratification factors in the randomization process, including: (1) PD-L1 expression (TC≥1% vs TC<1%); (2) smoking status (frequent smoking vs no smoking or little smoking); and (3) pathological type (squamous cell carcinoma vs non-squamous cell carcinoma).
For analysis of secondary efficacy endpoints OS, DOR, and TTR, the method described above as applied to the primary efficacy endpoint PFS was used. […]

[3] = patients with BOR reaching CR or PR, overall population
[4] = patients with non-squamous cell carcinoma
[5] = patients with non-squamous cell carcinoma, listed as test group
[6] = patients with squamous cell carcinoma
[7] = patients with squamous cell carcinoma, listed as test group

**Q.** Which results are given for “JS001 + standard first-line chemotherapy: toripalimab 240 mg Q3W plus albumin-bound paclitaxel+carboplatin (squamous) or pemetrexed+cisplatin/carboplatin (non-squamous)”?
**A.** response rate (ORR) ([1]; ITT population, as of Oct. 31, 2021): 65.7%; ORR ([1]; TMB-H patients (TMB≥10 mutations/Mb), as of Oct. 31, 2021): 72.7%; median PFS ([1]; patients carrying FA/PI3K/Akt pathway mutations): 8.9 months; median PFS ([1]; patients carrying the SMARCA4 mutation (n=48), especially non-squamous cell subgroup (n=33)): 9.9 months; PFS rate at 6 months ([2]; ITT): 62.3%; PFS rate at 12 months ([2]; ITT): 32.6%; increase of PFS rate at 6 months compared to control group ([2]; ITT): 20.8%; increase of PFS rate at 12 months compared to control group ([2]; ITT): 19.5%; HR for PFS (test vs control) ([2]; ITT population, RECIST 1.1): 0.58; PFS prolonged by, compared to standard chemotherapy ([2]; ITT population, RECIST 1.1): 2.7 months; reduction of the risk of progression or death, compared to standard chemotherapy ([2]; ITT population, RECIST 1.1): 42%; median PFS ([2]; ITT population, RECIST 1.1, interim analysis as of Nov. 17, 2020): 8.3 months; Best overall response: Complete response (CR) ([2]; non-squamous cell carcinoma): 0 N (%); Best overall response: Deletion ([2]; non-squamous cell carcinoma): 8 (4.9) N (%); Best overall response: Not evaluable (NE) ([2]; non-squamous cell carcinoma): 0 N (%); Best overall response: Partial response (PR) ([2]; non-squamous cell carcinoma): 95 (58.6) N (%); Best overall response: Progressive disease (PD) ([2]; non-squamous cell carcinoma): 5 (3.1) N (%); Objective response rate (ORR) ([2]; non-squamous cell carcinoma): 95 (58.6) N (%); DCR ([2]; overall population): 90.9%; DOR prolonged by, compared to control group ([2]; overall population): 4.1 months; HR for DOR (test vs control) ([2]; overall population): 0.56; increase in ORR compared to control group ([2]; overall population): 21.7%; ORR ([2]; overall population, RECIST v1.1): 63.4%; median DOR [2, 3]: 8.3 months; median TTR [2, 3]: 1.5 months; HR for DOR (test vs control) [2, 4]: 0.63; HR for PFS (test vs control) [2, 4]: 0.59; ORR [2, 4]: 58.6%; increase in ORR compared to control group [2, 4]: 32.1%; median DOR (95% confidence interval) [2, 4]: 8.6 (6.9, NE) months; median TTR (95% confidence interval) [2, 4]: 1.4 (1.4, 1.9) months; median PFS ([2]; patients with non-squamous cell carcinoma, RECIST 1.1): 8.4 months; median DOR (95% confidence interval) [2, 5]: 8.6 months; median TTR (95% confidence interval) [2, 5]: 1.4 months; HR for DOR (test vs control) [2, 6]: 0.46; HR for PFS (test vs control) [2, 6]: 0.55; ORR [2, 6]: 68.7%; increase in ORR compared to control group [2, 6]: 9.8%; median DOR (95% confidence interval) [2, 6]: 6.9 (4.5, NE) months; median TTR (95% confidence interval) [2, 6]: 1.5 (1.4, 1.6) months; median PFS ([2]; patients with squamous cell carcinoma, RECIST 1.1): 7.1 months; median DOR (95% confidence interval) [2, 7]: 6.9 months; median TTR (95% confidence interval) [2, 7]: 1.5 months; Best overall response: Complete response (CR) ([2]; squamous cell carcinoma): 0 N (%); Best overall response: Deletion ([2]; squamous cell carcinoma): 8 (5.4) N (%); Best overall response: Not evaluable (NE) ([2]; squamous cell carcinoma): 1 (0.7) N (%); Best overall response: Partial response (PR) ([2]; squamous cell carcinoma): 101 (68.7) N (%); Best overall response: Progressive disease (PD) ([2]; squamous cell carcinoma): 6 (4.1) N (%); Objective response rate (ORR) ([2]; squamous cell carcinoma): 101 (68.7) N (%)
